We go through six compounds from ChEMBL document CHEMBL4732135, “Structural and mechanistic insights into the inhibition of amyloid-β aggregation by Aβ fragment derived synthetic peptides” (Eur J Med Chem, 2021).

Square brackets hold non-standard residues; d marks the D form. Peptide text beside a SMILES is read from it. ξ: configuration not given here. Phe(4-CF3) = N[C@@H](Cc1ccc(C(F)(F)F)cc1)C(=O)O; Bip = N[C@@H](Cc1ccc(-c2ccccc2)cc1)C(=O)O; Phe(4-Cl) = N[C@@H](Cc1ccc(Cl)cc1)C(=O)O; Oic(3aξ,7aξ) = O=C(O)[C@@H]1CC2CCCCC2N1; 4Pal = N[C@@H](Cc1ccncc1)C(=O)O; β3hP = O=C(O)C[C@@H]1CCCN1

For the first assay, the system named is PC-12. The assay can be described thus: Neuroprotective activity against amyloid beta 42-induced toxicity in rat PC-12 cells assessed as cell viability at 4 uM measured after 6 hrs by MTT assay (reference value: 74.05%). The conditions noted are these: read-out: Activity. It counts as functional. (Formazan colour is commonly taken as a measure of viable cells.)
For `CC[C@H](C)[C@H](NC(=O)C[C@@H]1CCCN1C(=O)[C@@H](N)C(C)C)C(=O)N[C@@H](C)C(=O)O` (H-V[β3hP]IA-OH), the viability at 4 µM is 80.4%.
Same read-out and setting: the result for `CC[C@H](C)[C@H](NC(=O)[C@@H](NC(=O)[C@@H](N)Cc1ccncc1)C(C)C)C(=O)N[C@@H](C)C(=O)O` (H-[4Pal]VIA-OH) reads 78.2%; that for `CC[C@H](C)[C@H](NC(=O)[C@@H](NC(=O)[C@@H](N)Cc1ccc(-c2ccccc2)cc1)C(C)C)C(=O)N[C@@H](C)C(=O)O` (H-[Bip]VIA-OH), 80.6%; that for `CC[C@H](C)[C@H](NC(=O)[C@@H]1CC2CCCCC2N1C(=O)[C@@H]1CC2CCCCC2N1)C(=O)N[C@@H](C)C(=O)O` (stereo partly specified) (H-[Oic(3aξ,7aξ)][Oic(3aξ,7aξ)]IA-OH), 92.9%.
Same read-out and setting: for `CC[C@H](C)[C@H](NC(=O)[C@@H](NC(=O)[C@@H](N)Cc1ccc(C(F)(F)F)cc1)C(C)C)C(=O)N[C@@H](C)C(=O)O` (H-[Phe(4-CF3)]VIA-OH) the value was 88.7%; for `CC[C@H](C)[C@H](NC(=O)[C@@H](NC(=O)[C@@H](N)Cc1ccc(Cl)cc1)C(C)C)C(=O)N[C@@H](C)C(=O)O` (H-[Phe(4-Cl)]VIA-OH), 73.9%.

The subject of the next assay is PC-12. The assay can be described thus: Neuroprotective activity against amyloid beta 42-induced toxicity in rat PC-12 cells assessed as cell viability at 2 uM measured after 6 hrs by MTT assay (reference value: 74.05%). Format: functional. The note with it: read-out: Activity.
As for `CC[C@H](C)[C@H](NC(=O)C[C@@H]1CCCN1C(=O)[C@@H](N)C(C)C)C(=O)N[C@@H](C)C(=O)O` (H-V[β3hP]IA-OH), the viability at 2 µM turned out to be 91.1%.
Take `CC[C@H](C)[C@H](NC(=O)[C@@H](NC(=O)[C@@H](N)Cc1ccncc1)C(C)C)C(=O)N[C@@H](C)C(=O)O` (H-[4Pal]VIA-OH): the viability at 2 µM amounted to 82%.
Take `CC[C@H](C)[C@H](NC(=O)[C@@H](NC(=O)[C@@H](N)Cc1ccc(-c2ccccc2)cc1)C(C)C)C(=O)N[C@@H](C)C(=O)O` (H-[Bip]VIA-OH): the viability at 2 µM was 86.5%.
Still for that read-out and setting: the result for `CC[C@H](C)[C@H](NC(=O)[C@@H]1CC2CCCCC2N1C(=O)[C@@H]1CC2CCCCC2N1)C(=O)N[C@@H](C)C(=O)O` (stereo partly specified) (H-[Oic(3aξ,7aξ)][Oic(3aξ,7aξ)]IA-OH) reads 93.2%; that for `CC[C@H](C)[C@H](NC(=O)[C@@H](NC(=O)[C@@H](N)Cc1ccc(C(F)(F)F)cc1)C(C)C)C(=O)N[C@@H](C)C(=O)O` (H-[Phe(4-CF3)]VIA-OH), 92.1%; that for `CC[C@H](C)[C@H](NC(=O)[C@@H](NC(=O)[C@@H](N)Cc1ccc(Cl)cc1)C(C)C)C(=O)N[C@@H](C)C(=O)O` (H-[Phe(4-Cl)]VIA-OH), 80.1%.

The target of a further assay is Amyloid-beta precursor protein (Homo sapiens) (UniProt P05067). The assay can be described thus: Inhibition of amyloid beta (1 to 42) (unknown origin) assessed as reduction in peptide aggregation at 4 uM measured after 24 hrs by thioflavin-T fluorescence assay relative to control.
Chain of Amyloid-beta precursor protein (Homo sapiens) (P05067 whole entry): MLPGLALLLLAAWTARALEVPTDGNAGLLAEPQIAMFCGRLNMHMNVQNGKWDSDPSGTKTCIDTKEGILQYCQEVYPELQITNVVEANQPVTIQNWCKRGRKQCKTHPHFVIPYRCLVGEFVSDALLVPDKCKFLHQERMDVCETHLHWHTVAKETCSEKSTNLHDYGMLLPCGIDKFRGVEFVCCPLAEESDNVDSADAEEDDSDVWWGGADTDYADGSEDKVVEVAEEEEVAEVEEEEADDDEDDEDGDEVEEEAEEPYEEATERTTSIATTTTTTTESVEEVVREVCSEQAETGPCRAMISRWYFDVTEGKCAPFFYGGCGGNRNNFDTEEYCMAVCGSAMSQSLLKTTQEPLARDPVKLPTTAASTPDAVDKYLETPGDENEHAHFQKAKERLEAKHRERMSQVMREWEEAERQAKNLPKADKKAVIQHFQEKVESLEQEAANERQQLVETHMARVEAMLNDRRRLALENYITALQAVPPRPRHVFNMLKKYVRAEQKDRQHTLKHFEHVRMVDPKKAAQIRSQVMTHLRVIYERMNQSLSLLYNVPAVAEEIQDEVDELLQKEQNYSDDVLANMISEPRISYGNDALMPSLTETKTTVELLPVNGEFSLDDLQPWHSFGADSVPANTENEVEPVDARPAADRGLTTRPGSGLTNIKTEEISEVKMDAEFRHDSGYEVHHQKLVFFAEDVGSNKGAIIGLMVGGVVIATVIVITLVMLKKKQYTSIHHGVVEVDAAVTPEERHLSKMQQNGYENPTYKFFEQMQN
Conditions: not given
Take `CC[C@H](C)[C@H](NC(=O)C[C@@H]1CCCN1C(=O)[C@@H](N)C(C)C)C(=O)N[C@@H](C)C(=O)O` (H-V[β3hP]IA-OH): the inhibition (in general, the change of the read-out against control, counted positive when it falls) came out at 99.2%.
Same read-out and setting: for `CC[C@H](C)[C@H](NC(=O)[C@@H](NC(=O)[C@@H](N)Cc1ccncc1)C(C)C)C(=O)N[C@@H](C)C(=O)O` (H-[4Pal]VIA-OH) the value was 44.2%; for `CC[C@H](C)[C@H](NC(=O)[C@@H](NC(=O)[C@@H](N)Cc1ccc(-c2ccccc2)cc1)C(C)C)C(=O)N[C@@H](C)C(=O)O` (H-[Bip]VIA-OH), 34.7%.
Still for that read-out and setting: the result for `CC[C@H](C)[C@H](NC(=O)[C@@H]1CC2CCCCC2N1C(=O)[C@@H]1CC2CCCCC2N1)C(=O)N[C@@H](C)C(=O)O` (stereo partly specified) (H-[Oic(3aξ,7aξ)][Oic(3aξ,7aξ)]IA-OH) reads 99.1%; that for `CC[C@H](C)[C@H](NC(=O)[C@@H](NC(=O)[C@@H](N)Cc1ccc(C(F)(F)F)cc1)C(C)C)C(=O)N[C@@H](C)C(=O)O` (H-[Phe(4-CF3)]VIA-OH), 20.4%; that for `CC[C@H](C)[C@H](NC(=O)[C@@H](NC(=O)[C@@H](N)Cc1ccc(Cl)cc1)C(C)C)C(=O)N[C@@H](C)C(=O)O` (H-[Phe(4-Cl)]VIA-OH), 57.4%.

For another assay the target is unchanged. The assay can be described thus: Inhibition of amyloid beta (1 to 42) (unknown origin) assessed as reduction in peptide aggregation at 2 uM measured after 24 hrs by thioflavin-T fluorescence assay relative to control.
Conditions: not given
For the compound `CC[C@H](C)[C@H](NC(=O)C[C@@H]1CCCN1C(=O)[C@@H](N)C(C)C)C(=O)N[C@@H](C)C(=O)O` (H-V[β3hP]IA-OH), the inhibition amounted to 96.1%.
Same read-out and setting: for `CC[C@H](C)[C@H](NC(=O)[C@@H](NC(=O)[C@@H](N)Cc1ccncc1)C(C)C)C(=O)N[C@@H](C)C(=O)O` (H-[4Pal]VIA-OH) the value was 42.7%.
Still for that read-out and setting: the result for `CC[C@H](C)[C@H](NC(=O)[C@@H](NC(=O)[C@@H](N)Cc1ccc(-c2ccccc2)cc1)C(C)C)C(=O)N[C@@H](C)C(=O)O` (H-[Bip]VIA-OH) reads 26.4%.
Consider `CC[C@H](C)[C@H](NC(=O)[C@@H]1CC2CCCCC2N1C(=O)[C@@H]1CC2CCCCC2N1)C(=O)N[C@@H](C)C(=O)O` (stereo partly specified) (H-[Oic(3aξ,7aξ)][Oic(3aξ,7aξ)]IA-OH), for which the inhibition was found to be 100%.
On the same count and under the same terms, for `CC[C@H](C)[C@H](NC(=O)[C@@H](NC(=O)[C@@H](N)Cc1ccc(C(F)(F)F)cc1)C(C)C)C(=O)N[C@@H](C)C(=O)O` (H-[Phe(4-CF3)]VIA-OH) the value was 41.8%; for `CC[C@H](C)[C@H](NC(=O)[C@@H](NC(=O)[C@@H](N)Cc1ccc(Cl)cc1)C(C)C)C(=O)N[C@@H](C)C(=O)O` (H-[Phe(4-Cl)]VIA-OH), 46.4%.

For the next assay the target is unchanged. In words: Inhibition of amyloid beta (1 to 42) (unknown origin) assessed as reduction in peptide aggregation at 10 uM measured after 24 hrs by thioflavin-T fluorescence assay relative to control.
Conditions: not given
For the compound `CC[C@H](C)[C@H](NC(=O)C[C@@H]1CCCN1C(=O)[C@@H](N)C(C)C)C(=O)N[C@@H](C)C(=O)O` (H-V[β3hP]IA-OH), the inhibition amounted to 100%.
Still for that read-out and setting: for `CC[C@H](C)[C@H](NC(=O)[C@@H](NC(=O)[C@@H](N)Cc1ccncc1)C(C)C)C(=O)N[C@@H](C)C(=O)O` (H-[4Pal]VIA-OH) the value was 46%; for `CC[C@H](C)[C@H](NC(=O)[C@@H](NC(=O)[C@@H](N)Cc1ccc(-c2ccccc2)cc1)C(C)C)C(=O)N[C@@H](C)C(=O)O` (H-[Bip]VIA-OH), 12.9%.
Same read-out and setting: for `CC[C@H](C)[C@H](NC(=O)[C@@H]1CC2CCCCC2N1C(=O)[C@@H]1CC2CCCCC2N1)C(=O)N[C@@H](C)C(=O)O` (stereo partly specified) (H-[Oic(3aξ,7aξ)][Oic(3aξ,7aξ)]IA-OH) the value was 91.5%; for `CC[C@H](C)[C@H](NC(=O)[C@@H](NC(=O)[C@@H](N)Cc1ccc(C(F)(F)F)cc1)C(C)C)C(=O)N[C@@H](C)C(=O)O` (H-[Phe(4-CF3)]VIA-OH), 4.5%.
Still for that read-out and setting: for `CC[C@H](C)[C@H](NC(=O)[C@@H](NC(=O)[C@@H](N)Cc1ccc(Cl)cc1)C(C)C)C(=O)N[C@@H](C)C(=O)O` (H-[Phe(4-Cl)]VIA-OH) the value was 75.8%.

A further assay relates to PC-12. The assay can be described thus: Neuroprotective activity against amyloid beta 42-induced toxicity in rat PC-12 cells assessed as cell viability at 10 uM measured after 6 hrs by MTT assay (reference value: 74.05%). It counts as functional. The conditions noted are these: read-out: Activity.
Turning to `CC[C@H](C)[C@H](NC(=O)C[C@@H]1CCCN1C(=O)[C@@H](N)C(C)C)C(=O)N[C@@H](C)C(=O)O` (H-V[β3hP]IA-OH), the viability at 10 µM was found to be 66.4%.
On the same count and under the same terms, the result for `CC[C@H](C)[C@H](NC(=O)[C@@H](NC(=O)[C@@H](N)Cc1ccncc1)C(C)C)C(=O)N[C@@H](C)C(=O)O` (H-[4Pal]VIA-OH) reads 96.8%; that for `CC[C@H](C)[C@H](NC(=O)[C@@H](NC(=O)[C@@H](N)Cc1ccc(-c2ccccc2)cc1)C(C)C)C(=O)N[C@@H](C)C(=O)O` (H-[Bip]VIA-OH), 83.2%; that for `CC[C@H](C)[C@H](NC(=O)[C@@H]1CC2CCCCC2N1C(=O)[C@@H]1CC2CCCCC2N1)C(=O)N[C@@H](C)C(=O)O` (stereo partly specified) (H-[Oic(3aξ,7aξ)][Oic(3aξ,7aξ)]IA-OH), 88.5%.
`CC[C@H](C)[C@H](NC(=O)[C@@H](NC(=O)[C@@H](N)Cc1ccc(C(F)(F)F)cc1)C(C)C)C(=O)N[C@@H](C)C(=O)O` (H-[Phe(4-CF3)]VIA-OH): the viability at 10 µM came to 86.2%.
Regarding `CC[C@H](C)[C@H](NC(=O)[C@@H](NC(=O)[C@@H](N)Cc1ccc(Cl)cc1)C(C)C)C(=O)N[C@@H](C)C(=O)O` (H-[Phe(4-Cl)]VIA-OH), the viability at 10 µM amounted to 72.3%.
